Assay results published in publication PMC8414802, “Hair Cell Generation in Cochlear Culture Models Mediated by Novel γ-Secretase Inhibitors” (Frontiers in Cell and Developmental Biology, 2021).

System: Pou4f3 positive hair cells in cochlear sensory epithelium from P2 rats
Assay: Hair cell counts in rat organ of Corti explants
Assay type: cell-based
Conditions: rat OC explants, 4 days, apex/middle/base
Procedure: OC explants were isolated from postnatal day 2 (P2) Wistar rats, P0-P2 mice (Lgr5-GFP or Atoh1-nGFP mice). Dissection of the cochlea under a stereomicroscope (Nikon SMZ800, Japan) allowed OC separation from stria vascularis and modiolus, and the sensory epithelium was plated with hair cells facing up on Cell-Tak (Corning, United States)-coated transwell-clear inserts (6-well format, 0.4 μm pore, Corning, United States). Dissection medium was exchanged for 1.5 ml full otic medium supplemented with 10% FBS (Invitrogen) and 0.01% Ampicillin (Sigma), added under the insert membrane, maintaining the OC under a thin film of medium during culture at 37°C. 5-ethyl-2′-deoxyuridine (EdU, 5 μM, Life Technologies) was added directly in the medium when indicated. […]
Dividing cells were labeled with, 5-ethyl-2′-deoxyuridine (EdU) and detected with Click-it Plus kit (Life Technologies). […]
Image processing was performed with the open-source image processing software FIJI, version 2.0 ([Schindelin et al., 2012]). Hair cells were quantified by counting Pou4f3 or Myo7a positive cells of the organ of Corti at three random microscopic fields for each cochlear region (base, middle, and apex) covering in total at least 1,200 μm. The number of hair cells (IHCs and OHCs) is expressed as unit per 100 μm. […]

Structure (SMILES): COc1ccc2c(c1)N1CCC(C)(C)C1=CC(=O)[C@H]2NC(=O)[C@H](C)NC(=O)CCC(F)(F)F [CPD3]
- Region of OHC induction: limited to the apical region
